{"source": "patent US7101872B2", "about": "“Farnesyl dibenzodiazepinone, and processes for its production” (Ecopia BioSciences, Inc., priority 2003, dated 2006)", "key": {"U 373": {"test_system": "U 373", "assay": "Antiproliferative study, glioma cell lines (MTT)", "format": "cell-based", "conditions": "Homo sapiens, U373 MG, U 373, Astrocytoma, 96 hrs", "experimental": "(§1) Cells were passaged once a week. Prior to use the cells were detached from the culture flask by treating with trypsin for five to ten minutes. The cells were counted with a Neubauer glass slide and viability assessed by 0.25% trypan blue exclusion. Only flasks with >95% cell viability, were used in the study. Cell lines amplification and plating: Cells, 5×10^3 cells per well in 100 μL drug-free medium supplemented with 10% serum, were plated in 96-well flat bottom microtiter plates and incubated at 37° C. for 48 hrs before treatment. Evaluation of inhibitory activity on cell proliferation: Cells (in triplicate wells) were incubated 96 hrs with medium containing different concentrations of ECO-04601, starting at 5.0 μg/ml (10 μM). The compound was used in a solution of 1% DMSO in D-MEM or RPMI media (or other equivalent media). The concentrations of ECO-04601 were as follows: 10 μM (5.0 μg/ml), 1 μM (0.50 μg/ml), 0.5 μM (0.25 μg/ml), 0.1 μM (0.050 μg/ml), […] (0.025 μg/ml), 0.01 μM (0.0050 μg/ml), 0.001 μM (0.00050 μg/ml). Negative controls were cells treated with vehicle alone (1% DMSO in culture medium). Positive controls were cells treated with 4 to 6 increasing concentrations of cisplatin (CDDP) (data not shown). The optical density was measured before incubation (time 0) and following 96 hrs of incubation with test compound in order to measure the growth rate of each cell line.\n(§2) At the end of the cell treatment, cell culture media was replaced with 150 μl of fresh medium containing 10 mM of 4-(2-hydroxyethyl)-1-piperazineethanesulfonic acid buffer, pH 7.4. Then 50 μl of 2.5 mg/ml of 3-(4,5-dimethylthiazo-2-yl)-2,5-diphenyltetrazolium bromide in PBS pH 7.4, were added to each well and the culture plates incubated for 4 hrs at 37° C. The resulting supernatant was removed and formazan crystals were dissolved with 200 μl of DMSO followed by 25 μl of glycine buffer (0.1 M glycine plus 0.1 M NaCl, pH 10.5). The optical density was read in each well using a single wavelength spectrophotometer plate reader at 570 nm. […] Each of the cell lines was tested in at least 3 independent experiments."}, "C6": {"test_system": "C6", "assay": "Antiproliferative study, glioma cell lines (MTT)", "format": "cell-based", "conditions": "Rattus norvegicus, C6, Glioblastoma, 96 hrs", "experimental": "as §1, §2"}, "DN": {"test_system": "DN", "assay": "Antiproliferative study, glioma cell lines (MTT)", "format": "cell-based", "conditions": "Homo sapiens, Oligodendroglioma, 96 hrs", "experimental": "as §1, §2"}, "GHD": {"test_system": "GHD", "assay": "Antiproliferative study, glioma cell lines (MTT)", "format": "cell-based", "conditions": "Homo sapiens, Astrocytoma, 96 hrs", "experimental": "as §1, §2"}, "GHA": {"test_system": "GHA", "assay": "Antiproliferative study, glioma cell lines (MTT)", "format": "cell-based", "conditions": "Homo sapiens, Oligodendroglioma, 96 hrs", "experimental": "as §1, §2"}, "9L": {"test_system": "9L", "assay": "Antiproliferative study, glioma cell lines (MTT)", "format": "cell-based", "conditions": "Rattus norvegicus, Gliosarcoma, 96 hrs", "experimental": "as §1, §2"}, "[1]": {"test_system": "C6 glioblastoma cell-bearing mice", "assay": "In vivo glioma model, treatment from day 10 after inoculation", "set-up": "species or system Mus musculus nude mice", "conditions": "20–30 mg/kg; versus vehicle-treated mice (FIG. 11)", "experimental": "The aim of this study was to test whether ECO-04601 administered by i.p. route prevents or delays tumor growth in C6 glioblastoma cell-bearing mice, and to determine an effective dosage regimen.\nAnimal experiments were performed according to ethical guidelines of animal experimentation (Charte du comité d'éthique du CNRS, juillet 2003) and the English guidelines for the welfare of animals in experimental neoplasia (WORKMAN, P., […], P., BALKWILL, F., et al. (1998). United Kingdom Coordinating Committee on Cancer Research (UKCCCR) Guidelines for the welfare of animals in experimental neoplasia (Second Edition, July 1997; British Journal of Cancer 77:1–10). Any dead or apparently sick mice were promptly removed and replaced with healthy mice. Sick mice were euthanized upon removal from the cage. Animals were maintained in rooms under controlled conditions of temperature (23±2° C.), humidity (45±5%), photoperiodicity (12 hrs light/12 hrs dark) and air exchange. […] The cells were counted in a hemocytometer and their viability assessed by 0.25% trypan blue exclusion. […]\nIn a second series of experiments, treatment started at day 10 following inoculation of C6 cells when tumors became palpable (around 100 to 200 mm^3). […] Tumor volume was measured every second day until the end of the treatment using callipers. […]"}}}
{"smiles": "CC(C)=CCC/C(C)=C/CC/C(C)=C/CN1C(=O)c2cccc(O)c2Nc2c(O)cc(O)cc21", "note": "[ECO-04601, 10-farnesyl-4,6,8-trihydroxy-dibenzodiazepin-11-one]", "values": [{"measurement": "IC50", "setting": "U 373", "value": "3.83 ± 1.37", "unit": "µM"}, {"measurement": "IC50", "setting": "C6", "value": "4.28 ± 2.82", "unit": "µM"}, {"measurement": "IC50", "setting": "DN", "value": "3.26 ± 0.93", "unit": "µM"}, {"measurement": "IC50", "setting": "GHD", "value": "6.29 ± 2.98", "unit": "µM"}, {"measurement": "IC50", "setting": "GHA", "value": "1.78 ± 0.84", "unit": "µM"}, {"measurement": "IC50", "setting": "9L", "value": "6.82 ± 2.9", "unit": "µM"}, {"measurement": "Histological analysis of tumor sections", "setting": "[1]", "value": "cell density was decreased and the nuclei of remaining tumor cells appeared larger and pycnotic"}]}
